Measurements taken from article PMC9820303, “^αN-Acetyl β-Endorphin Is an Endogenous Ligand of σ1Rs That Regulates Mu-Opioid Receptor Signaling by Exchanging G Proteins for σ2Rs in σ1R Oligomers” (International Journal of Molecular Sciences, 2022).
Where a name gives a salt, the structure may show the parent alone. No end group written: not given here.

Legend:
[1] = system: CD1 mice (wild-type and σ1R−/−); test: Supraspinal analgesia, warm water (52 °C) tail-flick test; type: in vivo, mouse; conditions: for analgesia of the substance in σ1R−/− mice compared with wild-type: icv: morphine 3 nmol, β-End 1–31 0.5 nmol, DAMGO 0.1 nmol, DPDPE 10 nmol, WIN55,212-2 15 nmol, 8 mice per strain
Method: Upper panel: the withdrawal thresholds of the contralateral and ipsilateral paws were measured before (indicated as 0) and up to 14 days after surgery. […] Middle panel: 0.3 and 3 nmol of ^αN-acetyl β-End 1–31 were administered icv 7 days after surgery, and the nociceptive threshold was evaluated at the indicated postinjection intervals (in minutes). For every time interval studied in min or days, * indicates a significant difference from the group that received saline instead of ^αN-acetyl β-End 1–31; ϕ significant difference from the effect of 3 nmol ^αN-acetyl β-End 1–31. […] All data are presented as the mean ± SD of six mice. ANOVA followed by the Holm–Sidak multiple comparisons test, p < 0.05, 1-β > 0.80. […] Upper panel: wild-type mice were injected icv with saline, ^αN-acetyl β-End 1–31 (1 nmol/mouse) or the combination of the σ1R agonist PPCC (3 nmol/mouse) plus ^αN-acetyl β-End 1–31 20 min before morphine and β-End 1–31. Analgesia was evaluated by the warm water (52 °C) tail-flick test at the interval postinjection corresponding to their peak effect, 30 min. Lower panel: σ1R^−/− mice received 1 nmol ^αN-acetyl β-End 1–31, 20 min before morphine and β-End 1–31 and analgesia was evaluated as described above. Eight mice were used per strain and treatment. * Significant difference with respect to the group treated with morphine or β-End 1–31 alone. ANOVA followed by the Holm–Sidak multiple comparisons test, p < 0.05, 1-β > 0.80.
Figure 3 Effect of physiological β-End 1–31 derivatives on morphine and β-End 1–31 analgesia. […] (A) The mice were icv-injected with 25 nmol of β-End 1–26, β-End 1–27 and ^αN-acetylated derivatives 20 min before icv 0.5 nmol β-End 1–31. Analgesia was determined at the indicated postinjection intervals. (B) CD1 wild-type and σ1R^−/− mice were administered C terminal peptide sequences 27–31, 28–31 and 30–31 of β-End 1–31 through an icv injection 20 min before 0.5 nmol of the whole β-End 1–31 and morphine (10 nmols) were injected icv. […] (C) A series of exogenous σ1R ligands (3 nmol) were icv-injected 20 min before 0.5 nmol β-End 1–31 was administered via icv in wild-type mice. The σ1R antagonist S1RA was also icv-injected before β-End 1–31 was administered icv in σ1R^−/− mice. (D) The effects of several doses of S1RA on morphine analgesia were studied in wild-type and σ1R^−/− mice. […] ANOVA followed by the Holm–Sidak multiple comparisons test, p < 0.05, 1-β > 0.80.
(A) The effect of σ1R deletion on opioid- and cannabinoid-induced analgesia. Analgesic compounds were icv-injected into wild-type and σ1R^−/− mice, and analgesia was evaluated 30 min after morphine (3 nmol) and β-End 1–31 (0.5 nmol), 15 min after DAMGO (0.1 nmol) and DPDPE (10 nmol) and 10 min after WIN55,212-2 (15 nmol). The bars are the mean ± SD of eight mice per strain and treatment. * Significant difference with respect to the effect of the analgesic substance in the wild-type group. ANOVA followed by the Holm–Sidak multiple comparisons test, p < 0.05, 1-β > 0.80. (B) Coprecipitation of G proteins with MORs. Solubilized mouse brain cortical membranes enriched in synaptosomes (SBM) from CD1 wild-type (WT) and σ1R^−/− mice were solubilized with sonication in the presence of 1% NP-40. Non-soluble debris was eliminated, and the samples were then incubated overnight at 4 °C with affinity-purified biotinylated IgGs that were raised against extracellular regions of the MOR. Protein complexes that were immunoprecipitated with streptavidin agarose were extensively washed and then resolved by SDS-PAGE.

σ1R-σ2R = σ1R-σ2R (Mus musculus, UniProt O55242); test: In vitro σ1R-σ2R association of recombinant proteins (HaloLink-σ2R, Western blot); type: biochemical, murine; parameters: The coding region of the full-length murine σ1R (AF004927); GST (N, cleaved yes); made in house; host or cells: E. coli BL21 (KRX); conditions: increasing concentrations; 30 min RT; vs control without ligand
σ1R-σ2R, sequence (O55242 whole entry): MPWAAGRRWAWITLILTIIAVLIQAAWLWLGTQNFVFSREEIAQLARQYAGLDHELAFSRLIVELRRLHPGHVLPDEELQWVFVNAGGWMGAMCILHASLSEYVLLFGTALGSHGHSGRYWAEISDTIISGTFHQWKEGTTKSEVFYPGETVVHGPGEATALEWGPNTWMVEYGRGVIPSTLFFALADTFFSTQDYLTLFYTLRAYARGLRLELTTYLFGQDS
Method: (§1) Figure 7 Effect of β-End 1–31, ^αN-acetyl β-End 1–31 and their N-terminal derivatives on σ1R-σ2R, σ1R-NR1 C1 and σ1R-BiP associations. Amino acid sequence of β-End 1–31 showing derivatives 1–26 and 1–27. (A) HaloLink-attached σ2Rs were incubated for 30 min at RT in the presence of σ1Rs (100 nM) in 300 μL of 50 mM Tris-HCl (pH 7.4), 0.2% CHAPS, and 2.5 mM CaCl2. After removing the unbound σ1R proteins, the effects of increasing the peptide concentrations on σ1R-σ2R associations were studied. At the end of the incubation, protein complexes bound to HaloLink-σ2R were obtained by centrifugation, washed three times, solubilized in 2× Laemmli buffer containing β-mercaptoethanol, resolved by SDS-PAGE, and analyzed by Western blotting (for more details, see Section 4). This protocol was also used to assess the effect of ligands on (B) σ1R-NR1 C1 and (C) σ1R-BiP associations. Data were compared to that of the control, which was obtained in the absence of ligands. (A–C) Data are the mean ± SD, n = 3. (D) The β-End 1–31 structural models were predicted by Novafold (DNASTAR Lasergene protein v.17, Inc., Madison, WI, USA). Ribbon model: The 3D structure, charge distribution and hydrophobicity map of β-End 1–31 are shown. Positive charges are shown in red and negative charges in blue. Polar surfaces are shown in yellow, and nonpolar surfaces are shown in orange. Linear model: the opioid (1–5) and flexible region (8–11) sequences are shown in green and orange, respectively, and the amphiphilic helix (15–25) is shown in pink.
(§2) The recombinant σ1R (100 nM) was incubated either with Haloprotein (negative control) or together with the immobilized σ2R, NR1 C0-C1-C2 or BiP proteins in 300 µL of a buffer containing 50 mM Tris-HCl (pH 7.4) and 0.2% CHAPS in the presence of 2.5 mM CaCl2 for 30 min at RT. After removal of the unbound σ1R, the agarose-attached complexes were incubated for 30 min with rotation at RT in the presence of increasing concentrations of the ligands in a final reaction volume of 300 µL [50 mM Tris-HCl (pH 7.4), 2.5 mM CaCl2 and 0.2% CHAPS]. Ligands were usually dissolved in aqueous solutions; however, when an organic solvent such as DMSO was required to incorporate, e.g., pregnenolone sulfate, the solvent remained below 1% in the assay buffer. Agarose pellets containing the bound proteins were obtained by centrifugation, washed and resuspended thrice in the presence of 2.5 mM CaCl2, solubilized in 2× Laemmli buffer plus β-mercaptoethanol, and analyzed by Western blotting.
(§3) Because all the assays were performed with recombinant proteins, the immune signals provided a single band of the expected size, which was used for the subsequent densitometry analysis. Accordingly, no other regions of the blots provided information and were routinely excluded from the analysis.
Figure S7. Effect of σ1R agonist/antagonist ligands on σ1R-σ2R heterodimers. (A-C) Agarose (Θ)- attached σ2Rs captured recombinant σ1Rs. After removing unbound σ1R proteins, the Θ-σ2R.σ1R complexes were incubated with a ﬁxed concentration of a selected L1 ligand (indicated in brackets) in the absence and presence of increasing concentrations of competing σ1R ligands as indicated. The σ1Rs that remained attached to the Θ-σ2Rs were evaluated by Western blotting. * Signiﬁcant differences with respect to the control group that was incubated without L1 ligands. ANOVA followed by the Holm-Sidak multiple comparisons test, p < 0.05. For details, see Methods and Figure 6A. Representative blots are […]
Figure S8. Effect of the physiological and nonphysiological sequences of β-End 1-31 and classical σ1R ligands on BiP-σ1R, σ2R-σ1R and NR1 C1-σ1R associations . Agarose-BiP was loaded with σ1Rs, and after the unbound σ1Rs were removed, the agarose-BiP-σ1R complexes were incubated in the absence (control) and presence of increasing concentrations of (A) β-End 1-31 C-terminal physiological derivatives and (B) classical σ1R ligands. C) Agarose-σ2R loaded with σ1Rs was incubated in the […]

σ1R-NR1 C1 = molecular target: T1, σ1R-NR1 C1 (Mus musculus, UniProt O55242); test: In vitro σ1R-NR1 C1 association of recombinant proteins (Western blot); type: biochemical, murine; conditions: increasing concentrations; 30 min RT; vs control without ligand
T1 construct: The coding region of the full-length murine σ1R (AF004927); GST (N, cleaved yes); made in house; host or cells: E. coli BL21 (KRX)
T1 sequence (O55242 whole entry): as above
Method: as §1, §2, §3
Figure S8. Effect of the physiological and nonphysiological sequences of β-End 1-31 and classical σ1R ligands on BiP-σ1R, σ2R-σ1R and NR1 C1-σ1R associations . […]
D) Agarose-NR1 C1 loaded with […]
σ1Rs were incubated in the absence (control) and with nonphysiological derivatives of β-End 1-31. A-D) The σ1Rs that remained attached to the agarose complexes were evaluated by Western blotting. The […]
(§4) (1 picture or pasted object on this page, not shown here)
Figure S9. Effect of σ1R agonist/antagonist ligands on σ1R-NR1 C1 associations. Θ-Agarose-NR1 C1 was loaded with recombinant σ1Rs. After unbound σ1R proteins were removed, the complexes were incubated with (A) 1 nM β-End 1-31, (B) αN-acetyl β-End 1-31, (C-D) β-End 28-31 in the absence (black columns) and presence of (A) 10 nM or (B-D) increasing concentrations of competing σ1R ligands as indicated. The σ1Rs that remained attached to the Θ-σ2Rs were evaluated by Western blotting. The […]
Prog is progesterone; PregSulfate is pregnenolone sulfate; Nac is […]

σ1R-BiP = molecular target: T2, σ1R-BiP (Mus musculus, UniProt O55242); test: In vitro σ1R-BiP association of recombinant proteins (Western blot); type: biochemical
T2 construct: The coding region of the full-length murine σ1R (AF004927); GST (N, cleaved yes); host or cells: E. coli BL21 (KRX) for σ1R
T2 sequence (O55242 whole entry): as above
Method: as §1, §2, §3
Figure S8. Effect of the physiological and nonphysiological sequences of β-End 1-31 and classical σ1R ligands on BiP-σ1R, σ2R-σ1R and NR1 C1-σ1R associations . Agarose-BiP was loaded with σ1Rs, and after the unbound σ1Rs were removed, the agarose-BiP-σ1R complexes were incubated in the absence (control) and presence of increasing concentrations of (A) β-End 1-31 C-terminal physiological derivatives and (B) classical σ1R ligands. C) Agarose-σ2R loaded with σ1Rs was incubated in the absence (control) and with nonphysiological derivatives of β-End 1-31. D) Agarose-NR1 C1 loaded with σ1Rs were incubated in the absence (control) and with nonphysiological derivatives of β-End 1-31. A-D) The σ1Rs that remained attached to the agarose complexes were evaluated by Western blotting. The […]
as §4
Figure S10. Effect of σ1R agonist/antagonist ligands on σ1R-BiP associations. Agarose-attached BiP proteins were incubated for 30 min in the presence of recombinant σ1R (100 nM) proteins in 300 μL of 50 mM Tris-HCl (pH 7.4), 0.2% CHAPS, and 2.5 mM CaCl2. After the unbound σ1R proteins were […]

Row | Molecule | analgesia of the substance in σ1R−/− mice compared with wild-type [1] | effect on σ1R-σ2R association (σ1R-σ2R) | effect on σ1R-NR1 C1 association (σ1R-NR1 C1) | other results
1 | Cc1c(C(=O)c2cccc3ccccc23)c2cccc3c2n1[C@H](CN1CCOCC1)CO3 [WIN55,212–2] | did not significantly change | – | – | –
2 | CN1CC[C@]23c4c5ccc(O)c4O[C@H]2[C@@H](O)C=C[C@H]3[C@H]1C5 [morphine, morphine sulfate] | increased analgesic response | – | – | –
3 | ([D-Ala2, N-MePhe4, Gly-ol]-enkephalin [DAMGO] | augmented | – | – | –
4 | ([D-Pen2,D-Pen5]enkephalin) [DPDPE] | did not significantly change | – | – | –
5 | GGFL [leu-enkephalin 2–5 metabolite] | – | disrupted this association | – | –
6 | GGFM [met-enkephalin 2–5 aminopeptidase product] | – | promoted the sigma receptor heterodimer | – | –
7 | YGGFL [leu-enkephalin, leucine-enkephalin 1–5] | – | disrupted this association | dissociated σ1R-NR1 C1 complexes | –
8 | YGGFM [met-enkephalin, methionine-enkephalin, β-End N-terminal derivative 1–5] | – | promoted the sigma receptor heterodimer | enhancement | –
9 | ^αN-acetyl leu-enkephalin: chimeric ^αN-acetylated leu-enkephalin | – | protective | – | –
10 | ^αN-acetyl β-End 1–27: ^αN-acetylated form of β-End 1–27 (Ac-YGGFMTSEKSQTPLVTLFKNAIIKNAY; UniProt P01189 237-263, looked up, fragment) | – | – | – | activity at σ1R-BiP against agonists / β-End 1–31 (σ1R-BiP; 1 nM β-End 1–31 with increasing competitor (Figure S10)): antagonist activity; effect on σ1R-BiP association (σ1R-BiP; increasing concentrations, 30 min RT, vs control without ligand): promoted σ1R-BiP complexes
11 | β-End 1–4: fragment 1–4 of β-End 1–31 (YGGF; Beta-endorphin; UniProt P01189 237-240, looked up, fragment) | – | – | enhancement | –
12 | β-End 1–16: nonphysiological fragment of β-End 1–31 (YGGFMTSEKSQTPLVT; Beta-endorphin; UniProt P01189 237-252, looked up, fragment) | – | – | – | effect on β-End 1–31 analgesia, nonphysiological fragments ([1]; 1 nmol icv 20 min before 0.5 nmol β-End 1–31 icv, 6 mice): practically did not alter β-End 1–31 analgesia
13 | β-End 2–31: β-End 1–31 without Y1 (GGFMTSEKSQTPLVTLFKNAIIKNAYKKGE; Beta-endorphin; UniProt P01189 238-267, looked up, fragment) | – | diminished σ1R-σ2R associations | promoting the σ1R-NR1 C1 association | –
